The text below walks through data of ChEMBL document CHEMBL4732226, “Discovery of a potent G-protein-coupled receptor 119 agonist for the treatment of type 2 diabetes” (Bioorg Med Chem, 2021).

SMILES strings stand for the structures.

Holding throughout (assay type): organism-based
Holding throughout (settings): in vivo, 672 h, time 28 day

A short description of data set [1]: Toxicity in male Wistar rat assessed as ratio of epididymides to body weight at 400 mg/kg, po after 28 days (reference value: 0.361 +/- 0.028).
The nature of data set [2]: Toxicity in male Wistar rat assessed as ratio of thymus to body weight at 400 mg/kg, po after 28 days (reference value: 0.148 +/- 0.023).
Data set [3] is described as follows: Toxicity in male Wistar rat assessed as ratio of heart to body weight at 400 mg/kg, po after 28 days (reference value: 0.333 +/- 0.036).

Consider `Cc1c(Oc2cccc(/C=C3\SC(=O)NC3=O)c2)ncnc1OC1CCN(C(=O)OC(C)(C)C)CC1`, for which the Ratio in data set [1] was 0.365; in data set [2], 0.196; in data set [3], 0.338.
